Experimental data reported in patent publication US20110190253A1, “METHOD FOR TREATING TUBERCULOSIS” (priority 2008, published 2011).

Tested on: extensively drug-resistant (XDR) clinical strains of M. tuberculosis
Assay: microbe, parasite or virus in culture
Type: cell-based
Conditions: for variability of MIC values among strains: thirteen XDR clinical isolates, clavulanate 2.5 μg ml^−1, data not shown

Row | SMILES | MIC (Mycobacterium tuberculosis, read-out: MIC value) [µg/mL] | variability of MIC values among strains
1 | C[C@@H](O)[C@H]1C(=O)N2C(C(=O)O)=C(S[C@@H]3CN[C@H](C(=O)N(C)C)C3)[C@H](C)[C@H]12 [meropenem] | ≤ 1 | –
2 | CC1(C)S[C@@H]2[C@H](NC(=O)[C@H](N)c3ccccc3)C(=O)N2[C@H]1C(=O)O [ampicillin] | – | substantial variability
3 | CC(=O)OCC1=C(C(=O)O)N2C(=O)[C@@H](NC(=O)Cc3cccs3)[C@H]2SC1 [cephalothin] | – | substantial variability
